The values below come from the NIST ThermoML archive (doi:10.1016/j.fluid.2009.05.005).

Data set [1] is described as follows: activity coefficient (dimensionless); of the first substance listed, at infinite dilution; xn = mol fraction of the nth substance listed. Particulars: 101 kPa, Liquid, circulation still, x1 = 0.
The nature of data set [2]: Excess molar heat capacity; xn = mol fraction of the nth substance listed. The following applies: 298.15 K; 101 kPa; Liquid; Flow calorimetry; x2 = 0.
Where [3] appears, read: 333.15 K, Rayleigh distillation.
Where [4] appears, read: 343.15 K, Rayleigh distillation.
The mark [5] stands for this setting: 353.15 K, Rayleigh distillation.

± gives the expanded uncertainty stated by the source.

As to `C1CCNCC1` [piperidine] + O, the activity coefficient in data set [1] (setting [3]) came to 11.9 ± 0.1; in data set [1] (setting [4]), 14.7 ± 0.1; in data set [1] (setting [5]), 17.7 ± 0.1; in data set [1] (372.6 K, Rayleigh distillation), 21 ± 0.1.

With `O` [water] + CN1CCCC1=O, the molar heat capacity in data set [2] is listed as 131 ± 2 J/K/mol.

`CN1CCCC1=O` [N-methylpyrrolidone] + O: the activity coefficient in data set [1] (333.15 K, differential distillation) amounted to 1.34 ± 0.06; in data set [1] (343.15 K, differential distillation) it was 1.56 ± 0.06; in data set [1] (353.15 K, differential distillation), 1.75 ± 0.06; in data set [1] (372.85 K, differential distillation), 2.07 ± 0.1.

On to `c1ccncc1` [pyridine] + O, for which the activity coefficient in data set [1] (setting [3]) was 24 ± 0.1; in data set [1] (setting [4]), 25.5 ± 0.1; in data set [1] (setting [5]) it was 26 ± 0.1; in data set [1] (372.8 K, Rayleigh distillation), 25.4 ± 0.1.
